Patent US20230031406A1, “COMPOUNDS AND COMPOSITIONS FOR TREATING CONDITIONS ASSOCIATED WITH NLRP ACTIVITY” (Novartis AG, priority 2018, published 2023)

system: PMA-differentiated THP-1 cells; assay: IL-1β production in PMA-differentiated THP-1 cells stimulated with gramicidin (hTHP-1 assay containing 2% fetal bovine serum; Procedures 1 and 2); format: cell-based, human; settings: Homo sapiens, THP-1, Table B2; 2% fetal bovine serum; class symbols; read-out: hTHP-1 IC50
Summary of the method: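 THP-1 cells were differentiated with PMA (20 ng/ml, 16-18 h), detached, and plated at 50,000 cells/well in RPMI 1640 with 2% FBS. They were pre-treated with compound (0.0017–100 μM, 0.37% DMSO) for 1 h, then stimulated with gramicidin (5 μM) for 2 h. Supernatant IL-1β was measured by HTRF.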

Question: How did the IC50 turn out when CC(C)n1cc(CO)c(S(N)(=O)=NC(=O)Nc2c3c(nc4c2CCC4(C)C)CCC3)n1 (stereo not drawn) [Compound 682, N′-((3,3-dimethyl-1,2,3,5,6,7-hexahydrodicyclopenta [b,e]pyridin-8-yl)carbamoyl)-4-(hydroxymethyl)-1-isopropyl-1H-pyrazole-3-sulfonimidamide] was run?
Answer: Its IC50 is 1000 to 5000 nM.

Question: How did the IC50 turn out when CC(C)(O)c1cnc(S(N)(=O)=NC(=O)Nc2c3c(nc4c2CCC42CC2)CCC3)s1 (stereo not drawn) [Compound 683, 5-(2-Hydroxypropan-2-yl)-N′-((1′,5′,6′,7′-tetrahydro-2′H-spiro[cyclopropane-1,3′-dicyclopenta[b,e]pyridin]-8′-yl)carbamoyl)thiazole-2-sulfonimidamide] was run?
Answer: Its IC50 is 1000 to 5000 nM.

Question: Which IC50 does the source give for CC(C)(O)c1cncc(S(N)(=O)=NC(=O)Nc2c3c(nc4c2CCC4(C)C)CCC3)c1 (stereo not drawn) [Compound 684, N′-((3,3-dimethyl-1,2,3,5,6,7-hexahydrodicyclopenta[b,e]pyridin-8-yl)carbamoyl)-5-(2-hydroxypropan-2-yl)pyridine-3-sulfonimidamide] here?
Answer: Its IC50 is 200 to 1000 nM.

Question: NS(=O)(=NC(=O)Nc1c2c(nc3c1CCC3)CCC2)c1ccn(CC(F)(F)F)n1 (stereo not drawn) [Compound 685, N′-((1,2,3,5,6,7-hexahydrodicyclopenta[b,e]pyridin-8-yl)carbamoyl)-1-(2,2,2-trifluoroethyl)-1H-pyrazole-3-sulfonimidamide] was tested. Which IC50 did it give?
Answer: Its IC50 is 1000 to 5000 nM.

Question: Which IC50 does the source give for CC(C)(O)c1cnc(S(N)(=O)=NC(=O)Nc2c3c(nc4c2CCC4(C)C)CCC3)s1 (stereo not drawn) [Compound 686, N′-((3,3-dimethyl-1,2,3,5,6,7-hexahydrodicyclopenta[b,e]pyridin-8-yl)carbamoyl)-5-(2-hydroxypropan-2-yl)thiazole-2-sulfonimidamide] here?
Answer: The IC50 was 200 to 1000 nM.

Question: Which IC50 does the source give for Cc1cn(C(C)C)nc1S(N)(=O)=NC(=O)Nc1c2c(nc3c1CCC3)CCC2 (stereo not drawn) [Compound 687, N′-((1,2,3,5,6,7-hexahydrodicyclopenta[b,e]pyridin-8-yl)carbamoyl)-1-isopropyl-4-methyl-1H-pyrazole-3-sulfonimidamide] here?
Answer: Its IC50 is 5000 to 30000 nM.

Question: Which IC50 does the source give for CC(C)(O)c1sc(S(N)(=O)=NC(=O)Nc2c3c(nc4c2CCC4)CCC3)cc1Cl (stereo not drawn) [Compound 688, 4-Chloro-N′-((1,2,3,5,6,7-hexahydrodicyclopenta[b, e]pyridin-8-yl)carbamoyl)-5-(2-hydroxypropan-2-yl)thiophene-2-sulfonimidamide] here?
Answer: Its IC50 is 1000 to 5000 nM.

Question: For COCc1nc(C(C)(C)O)sc1S(N)(=O)=NC(=O)Nc1c2c(nc3c1CCC3)CCC2 (stereo not drawn) [Compound 689, N′-((1,2,3,5,6,7-hexahydrodicyclopenta[b,e]pyridin-8-yl)carbamoyl)-2-(2-hydroxypropan-2-yl)-4-(methoxymethyl)thiazole-5-sulfonimidamide], which IC50 is on record?
Answer: The IC50 was 1000 to 5000 nM.

Question: For CC(C)(O)c1cc(Br)c(S(N)(=O)=NC(=O)Nc2c3c(nc4c2CCC4)CCC3)s1 (stereo not drawn) [Compound 690, 3-Bromo-N′-((1,2,3,5,6,7-hexahydrodicyclopenta[b,e]pyridin-8-yl)carbamoyl)-5-(2-hydroxypropan-2-yl)thiophene-2-sulfonimidamide], which IC50 is on record?
Answer: The IC50 was 1000 to 5000 nM.

Question: How did the IC50 turn out when CC(C)(O)c1cc(Cl)c(S(N)(=O)=NC(=O)Nc2c3c(nc4c2CCC4)CCC3)s1 (stereo not drawn) [Compound 691, 3-Chloro-N′-((1,2,3,5,6,7-hexahydrodicyclopenta[b, e]pyridin-8-yl)carbamoyl)-5-(2-hydroxypropan-2-yl)thiophene-2-sulfonimidamide] was run?
Answer: Its IC50 is 1000 to 5000 nM.

Question: Which IC50 does the source give for Cc1cc(S(N)(=O)=NC(=O)Nc2c3c(nc4c2CCC4)CCC3)sc1C(C)(C)O (stereo not drawn) [Compound 692, N′-((1,2,3,5,6,7-hexahydrodicyclopenta[b,e]pyridin-8-yl)carbamoyl)-5-(2-hydroxypropan-2-yl)-4-methylthiophene-2-sulfonimidamide] here?
Answer: Its IC50 is 1000 to 5000 nM.

Question: How did the IC50 turn out when COC(C)(C)c1ncc(S(N)(=O)=NC(=O)Nc2c3c(nc4c2CCC4)CCC3)s1 (stereo not drawn) [Compound 693, N′-((1,2,3,5,6,7-hexahydrodicyclopenta[b,e]pyridin-8-yl)carbamoyl)-2-(2-methoxypropan-2-yl)thiazole-5-sulfonimidamide] was run?
Answer: Its IC50 is 1000 to 5000 nM.
